The values that follow come from patent EP4745118A1, “HYDROXAMIC ACID COMPOUND OR PHARMACEUTICALLY ACCEPTABLE SALT THEREOF, AND USE THEREOF AND PREPARATION METHOD THEREFOR” (priority 2023, dated 2025).

The structures appear in SMILES notation. Values after ≈ are worked out from the molar mass of the structure shown. Some results are limits rather than exact numbers.

In the first test the test system is Citrobacter freundii. Nature of the test: In vitro antibacterial activity, agar dilution method (MIC). It is filed as cell-based. The following applies: ATCC43864; Citrobacter freundii ATCC 43864; agar dilution, 35°C, 18 hours; read-out: MIC. On the procedure: (§1) According to the relevant operating procedures of the Clinical Laboratory Standards Institute (CLSI) in the United States, an antimicrobial susceptibility testing was conducted using the agar dilution method. […]. The agar was allowed to solidify and set aside for later use.
(§2) The test bacteria were propagated in broth and adjusted to a turbidity of 0.5 McFarland (approximately 1-2 × 10^8 CFU/mL) using a turbidimeter before inoculation. The 0.5 McFarland bacterial solution was then diluted 10-fold in broth (approximately 1-2 × 10^7 CFU/mL). A multipoint inoculator was used to inoculate the above bacterial solution onto a series of plates containing different concentrations of drugs (with an inoculation amount of approximately 10^4 CFU per inoculation site). After incubation at a constant temperature of 35°C for 18 hours, results were observed. The minimum concentration of drugs contained in sterile growth plates was determined as the Minimal Inhibitory Concentration (MIC).
(In agar dilution the substance is mixed into plates at graded concentrations.)
`NCC[C@H](O)C(=O)N[C@@H]1C[C@H](N)[C@@H](O[C@H]2O[C@H](CN)[C@@H](O)[C@H](O)[C@H]2O)[C@H](O)[C@H]1O[C@H]1O[C@H](CO)[C@@H](O)[C@H](N)[C@H]1O` [Amikacin]: the MIC was found to be 2 µg/mL (≈ 3.42 µM).

Another test deals with Enterobacter aerogenes. Described as above. It is filed as cell-based. The following applies: Klebsiella aerogenes, ATCC13048; Enterobacter aerogenes ATCC 13048; agar dilution, 35°C, 18 hours; read-out: MIC. How it is done:
as §1, §2
Take `NCC[C@H](O)C(=O)N[C@@H]1C[C@H](N)[C@@H](O[C@H]2O[C@H](CN)[C@@H](O)[C@H](O)[C@H]2O)[C@H](O)[C@H]1O[C@H]1O[C@H](CO)[C@@H](O)[C@H](N)[C@H]1O` [Amikacin]: the MIC worked out at 1 µg/mL (≈ 1.71 µM).

The subject of a further test is Escherichia coli. The test is described as above. It is filed as cell-based. The following applies: Escherichia coli, 18 h, Escherichia coli 13-43 (mcr-1); agar dilution, 35°C, 18 hours; read-out: MIC. On the procedure: as §1, §2
For `NCC[C@H](O)C(=O)N[C@@H]1C[C@H](N)[C@@H](O[C@H]2O[C@H](CN)[C@@H](O)[C@H](O)[C@H]2O)[C@H](O)[C@H]1O[C@H]1O[C@H](CO)[C@@H](O)[C@H](N)[C@H]1O` [Amikacin], the MIC came to 4 µg/mL (≈ 6.83 µM).

The same test, now with this note: Escherichia coli, 18 h, Escherichia coli 17-R28 (CRE, NDM-1-producing); agar dilution, 35°C, 18 hours; read-out: MIC.
On to `NCC[C@H](O)C(=O)N[C@@H]1C[C@H](N)[C@@H](O[C@H]2O[C@H](CN)[C@@H](O)[C@H](O)[C@H]2O)[C@H](O)[C@H]1O[C@H]1O[C@H](CO)[C@@H](O)[C@H](N)[C@H]1O` [Amikacin], for which the MIC was more than 128 µg/mL.

Staying with this test, now noted: Escherichia coli, ATCC2469, 18 h, Escherichia coli ATCC 2469 (CRE, NDM-1-producing); agar dilution, 35°C, 18 hours; read-out: MIC.
Take `NCC[C@H](O)C(=O)N[C@@H]1C[C@H](N)[C@@H](O[C@H]2O[C@H](CN)[C@@H](O)[C@H](O)[C@H]2O)[C@H](O)[C@H]1O[C@H]1O[C@H](CO)[C@@H](O)[C@H](N)[C@H]1O` [Amikacin]: the MIC was more than 128 µg/mL.

The test is the same for the next values; noted with them: Escherichia coli, ATCC35218, 18 h, Escherichia coli ATCC 35218 (ESBLs-producing); agar dilution, 35°C, 18 hours; read-out: MIC.
Take `NCC[C@H](O)C(=O)N[C@@H]1C[C@H](N)[C@@H](O[C@H]2O[C@H](CN)[C@@H](O)[C@H](O)[C@H]2O)[C@H](O)[C@H]1O[C@H]1O[C@H](CO)[C@@H](O)[C@H](N)[C@H]1O` [Amikacin]: the MIC was 4 µg/mL (≈ 6.83 µM).

Another test relates to Klebsiella pneumoniae. Described as above. It is filed as cell-based. The following applies: Klebsiella pneumoniae, 18 h, Klebsiella pneumoniae 09-20 (mcr-1); agar dilution, 35°C, 18 hours; read-out: MIC. How it is done: as §1, §2
Take `NCC[C@H](O)C(=O)N[C@@H]1C[C@H](N)[C@@H](O[C@H]2O[C@H](CN)[C@@H](O)[C@H](O)[C@H]2O)[C@H](O)[C@H]1O[C@H]1O[C@H](CO)[C@@H](O)[C@H](N)[C@H]1O` [Amikacin]: the MIC was more than 128 µg/mL.

The test is the same for the next values; noted with them: Klebsiella pneumoniae, 18 h, Klebsiella pneumoniae 17-R27 (CRE); agar dilution, 35°C, 18 hours; read-out: MIC.
Consider `NCC[C@H](O)C(=O)N[C@@H]1C[C@H](N)[C@@H](O[C@H]2O[C@H](CN)[C@@H](O)[C@H](O)[C@H]2O)[C@H](O)[C@H]1O[C@H]1O[C@H](CO)[C@@H](O)[C@H](N)[C@H]1O` [Amikacin], for which the minimum inhibitory concentration (MIC) is 2 µg/mL (≈ 3.42 µM).

The test is the same for the next values; noted with them: Klebsiella pneumoniae, 18 h, Klebsiella pneumoniae 18-8 (ESBLs-producing); agar dilution, 35°C, 18 hours; read-out: MIC.
Take `NCC[C@H](O)C(=O)N[C@@H]1C[C@H](N)[C@@H](O[C@H]2O[C@H](CN)[C@@H](O)[C@H](O)[C@H]2O)[C@H](O)[C@H]1O[C@H]1O[C@H](CO)[C@@H](O)[C@H](N)[C@H]1O` [Amikacin]: the MIC turned out to be 1 µg/mL (≈ 1.71 µM).

Staying with this test, now noted: Klebsiella pneumoniae, ATCC700603, 18 h, Klebsiella pneumoniae ATCC 700603 (ESBLs-producing); agar dilution, 35°C, 18 hours; read-out: MIC.
As to `NCC[C@H](O)C(=O)N[C@@H]1C[C@H](N)[C@@H](O[C@H]2O[C@H](CN)[C@@H](O)[C@H](O)[C@H]2O)[C@H](O)[C@H]1O[C@H]1O[C@H](CO)[C@@H](O)[C@H](N)[C@H]1O` [Amikacin], the MIC is 1 µg/mL (≈ 1.71 µM).

The test is the same for the next values; noted with them: Klebsiella pneumoniae, ATCCBAA2146, 18 h, Klebsiella pneumoniae ATCC BAA-2146 (CRE, NDM-1-producing); agar dilution, 35°C, 18 hours; read-out: MIC.
Take `NCC[C@H](O)C(=O)N[C@@H]1C[C@H](N)[C@@H](O[C@H]2O[C@H](CN)[C@@H](O)[C@H](O)[C@H]2O)[C@H](O)[C@H]1O[C@H]1O[C@H](CO)[C@@H](O)[C@H](N)[C@H]1O` [Amikacin]: the MIC was more than 128 µg/mL.

A further test concerns Pantoea agglomerans. Described as above. The following applies: ATCC27993; Pantoea agglomerans ATCC 27993; agar dilution, 35°C, 18 hours; read-out: MIC. It is filed as cell-based. How it is done:
as §1, §2
For `NCC[C@H](O)C(=O)N[C@@H]1C[C@H](N)[C@@H](O[C@H]2O[C@H](CN)[C@@H](O)[C@H](O)[C@H]2O)[C@H](O)[C@H]1O[C@H]1O[C@H](CO)[C@@H](O)[C@H](N)[C@H]1O` [Amikacin], the MIC amounted to 2 µg/mL (≈ 3.42 µM).

The next test concerns Proteus mirabilis. The test is described as above. It is filed as cell-based. The following applies: ATCC49565; Proteus mirabilis ATCC 49565; agar dilution, 35°C, 18 hours; read-out: MIC. How it is done:
as §1, §2
Turning to `NCC[C@H](O)C(=O)N[C@@H]1C[C@H](N)[C@@H](O[C@H]2O[C@H](CN)[C@@H](O)[C@H](O)[C@H]2O)[C@H](O)[C@H]1O[C@H]1O[C@H](CO)[C@@H](O)[C@H](N)[C@H]1O` [Amikacin], the MIC was 2 µg/mL (≈ 3.42 µM).

A further test deals with Proteus vulgaris. The description is as above. It is filed as cell-based. The following applies: ATCC29905; Proteus vulgaris ATCC 29905; agar dilution, 35°C, 18 hours; read-out: MIC. On the procedure:
as §1, §2
In the case of `NCC[C@H](O)C(=O)N[C@@H]1C[C@H](N)[C@@H](O[C@H]2O[C@H](CN)[C@@H](O)[C@H](O)[C@H]2O)[C@H](O)[C@H]1O[C@H]1O[C@H](CO)[C@@H](O)[C@H](N)[C@H]1O` [Amikacin], the MIC amounted to 1 µg/mL (≈ 1.71 µM).

In another test the test system is Pseudomonas aeruginosa. The description is as above. It is filed as cell-based. The following applies: Pseudomonas aeruginosa PAO1; agar dilution, 35°C, 18 hours; read-out: MIC. On the procedure:
as §1, §2
In the case of `NCC[C@H](O)C(=O)N[C@@H]1C[C@H](N)[C@@H](O[C@H]2O[C@H](CN)[C@@H](O)[C@H](O)[C@H]2O)[C@H](O)[C@H]1O[C@H]1O[C@H](CO)[C@@H](O)[C@H](N)[C@H]1O` [Amikacin], the minimum inhibitory concentration (MIC) came out at 2 µg/mL (≈ 3.42 µM).

A further test has as its system Serratia marcescens. The test is described as above. The following applies: ATCC21074; Serratia marcescens ATCC 21074; agar dilution, 35°C, 18 hours; read-out: MIC. It is filed as cell-based. On the procedure: as §1, §2
As to `NCC[C@H](O)C(=O)N[C@@H]1C[C@H](N)[C@@H](O[C@H]2O[C@H](CN)[C@@H](O)[C@H](O)[C@H]2O)[C@H](O)[C@H]1O[C@H]1O[C@H](CO)[C@@H](O)[C@H](N)[C@H]1O` [Amikacin], the MIC stood at 2 µg/mL (≈ 3.42 µM).

The test system of another test is Enterobacter cloacae. The test is described as above. It is filed as cell-based. The following applies: Enterobacter cloacae CDC1000654 (NDM-1-producing); agar dilution, 35°C, 18 hours; read-out: MIC. How it is done:
According to the relevant operating procedures of the Clinical Laboratory Standards Institute (CLSI) in the United States, an antimicrobial susceptibility testing was conducted using the agar dilution method. […] The agar was allowed to solidify and set aside for later use.
as §2
In the case of `NCC[C@H](O)C(=O)N[C@@H]1C[C@H](N)[C@@H](O[C@H]2O[C@H](CN)[C@@H](O)[C@H](O)[C@H]2O)[C@H](O)[C@H]1O[C@H]1O[C@H](CO)[C@@H](O)[C@H](N)[C@H]1O` [Amikacin], the MIC is more than 128 µg/mL.

The next test relates to Shigella flexneri. The test is described as above. The following applies: ATCC12022, Shigella flexneri ATCC 12022, 35°C, 18 hours, read-out: MIC. It is filed as cell-based. On the procedure:
According to the relevant operating procedures of the Clinical Laboratory Standards Institute (CLSI) in the United States, an antimicrobial susceptibility testing was conducted using the agar dilution method. A 1920 µg/mL stock solution was serially diluted twofold with sterile water to obtain dilutions of 960, 480, 240, 120, 60, 30, 15, 7.5, 3.75, 1.88, 0.94, 0.47 µg/mL, and 1 mL of the dilution was taken respectively from the dilutions with different concentrations and added to a Petri dish, to which 14 mL of melted MH agar medium was added and mixed thoroughly, and the final concentration of the drug in the petri dish is 128, 64, 32, 16, 8, 4, 2, 1, 0.5, 0.25, 0.12, 0.06, and 0.03 µ g/mL, respectively. The agar was allowed to solidify and set aside for later use.
as §2
With `NCC[C@H](O)C(=O)N[C@@H]1C[C@H](N)[C@@H](O[C@H]2O[C@H](CN)[C@@H](O)[C@H](O)[C@H]2O)[C@H](O)[C@H]1O[C@H]1O[C@H](CO)[C@@H](O)[C@H](N)[C@H]1O` [Amikacin], the MIC was found to be 4 µg/mL (≈ 6.83 µM).

In general, MIC refers to the least concentration at which growth counts as inhibited.
